We go through 9 compounds from US20250179047A1, “5-[7-(3,4-DIHYDRO-1H-ISOQUINOLINE-2-CARBONYL)-1,2,3,4 TETRAHYDROISOQUINOLIN-6-YL]-1H-PYRROLE-3-CARBOXAMIDE DERIVATIVES, PHARMACEUTICAL COMPOSITIONS CONTAINING THEM AND THEIR USES AS PRO-APOPTOTIC AGENTS” (LES LABORATOIRES SERVIER, priority 2022, published 2025).

pKi: −log10 of the molar value.

The target in assay [1] is BCL2 WT (Homo sapiens (Human), UniProt P10415). Kind of assay: TR-FRET competitive binding assay, BCL2 WT. Particulars: Ki determined from IC50, read-out: TR_FRET EKI_Bcl2 WT. An outline of the steps:
(§1)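 Ki derived from IC50 (11-point dilution, 520/495 nm emission ratio) for displacing a fluorescein-labelled PUMA peptide (2 or 20 nM). Target was 0.5 nM E. coli-expressed Halo-tagged BCL2 (1-207) or BCLXL (2-196), terbium-labelled on Halo. Incubation 2 h at 23°C in pH 7.5 Hepes with 150 mM NaCl and 5% DMSO.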
On the technique in general: Time-resolved FRET reads energy transfer from a long-lived donor to a nearby acceptor.

In assay [2] the target is BCL2 G101V (Homo sapiens, UniProt P10415, G101V). Kind of assay: TR-FRET competitive binding assay, BCL2 G101V. The settings on record: BCL2 G101V; Ki determined from IC50; read-out: TR_FRET EKI_Bcl2 G101V. An outline of the steps:
as §1

Assay [3] concerns BCL2 G101V. In words: TR-FRET competitive binding assay, BCL2 G101V. The arrangement: species or system human. Particulars: ratio Ki BCL2 G101V / Ki BCL2 WT. An outline of the steps: as §1
Assay [4] addresses BCL2 D103Y (Homo sapiens, UniProt P10415, D103Y). Kind of assay: TR-FRET competitive binding assay, BCL2 D103Y. Particulars: Ki determined from IC50, read-out: TR_FRET EKI_Bcl2 D103Y. An outline of the steps:
as §1

For assay [5], the target named is BCLXL WT (Homo sapiens (Human), UniProt Q07817). Kind of assay: TR-FRET competitive binding assay, BCLXL WT. The settings on record: for pKi: BCLXL WT, Ki determined from IC50, read-out: TR_FRET EKI BclxL; for TR_FRET EKI BCLxL/WT selectivty ratio: ratio Ki BCLxL / Ki BCL2 WT. The gist of the method: as §1
The subject of assay [6] is KMS-12-PE Bcl-2 WT. In words: In vitro cytotoxicity CellTiter-Glo 48 h, KMS-12-PE Bcl-2 WT. The class given is cell-based. Particulars: Homo sapiens, KMS-12-PE, C50 = concentration needed to reach 50% of the cellular viability. The gist of the method:
(§2)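 Potency is expressed as C50, the compound concentration at which viability of engineered KMS-12-PE cells (Bcl-2 wild type or G101V) falls to 50%, determined from CellTiter-Glo luminescence after 48 h of treatment over 11 concentrations.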
(ATP-based viability assays read luminescence as a measure of living cells.)

Assay [7] has as its system KMS-12-PE Bcl-2 G101V. Kind of assay: In vitro cytotoxicity CellTiter-Glo 48 h, KMS-12-PE Bcl-2 G101V. It counts as cell-based. Particulars: for Ratio (G101V/WT): C50 KMS-12-PE Bcl-2 G101V over C50 KMS-12-PE Bcl-2 WT; for IC50: Homo sapiens, KMS-12-PE, 48 h, CellTiter-Glo, C50 = concentration needed to reach 50% of the cellular viability. An outline of the steps: as §2

Sequence of BCLXL WT (Q07817 other isoform, or with tags, fused parts or gaps): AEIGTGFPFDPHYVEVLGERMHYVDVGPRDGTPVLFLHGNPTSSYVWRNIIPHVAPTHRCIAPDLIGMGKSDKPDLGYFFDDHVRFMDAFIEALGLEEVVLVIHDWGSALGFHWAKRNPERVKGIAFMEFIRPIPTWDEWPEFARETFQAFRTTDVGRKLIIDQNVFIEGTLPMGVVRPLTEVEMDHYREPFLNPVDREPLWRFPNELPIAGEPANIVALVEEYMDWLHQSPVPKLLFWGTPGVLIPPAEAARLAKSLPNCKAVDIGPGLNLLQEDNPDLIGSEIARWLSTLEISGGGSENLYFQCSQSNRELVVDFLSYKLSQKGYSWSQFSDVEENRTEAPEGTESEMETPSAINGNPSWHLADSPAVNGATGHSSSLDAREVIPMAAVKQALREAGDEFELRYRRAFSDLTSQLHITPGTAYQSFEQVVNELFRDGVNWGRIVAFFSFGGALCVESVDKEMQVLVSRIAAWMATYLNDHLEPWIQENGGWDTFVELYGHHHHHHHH

The term IC50 denotes the concentration at which inhibition is half-maximal. High values mean a need for much substance, low ones inhibition by little substance. In the case of `Cc1c(N(C(=O)c2cc(-c3cc4c(cc3C(=O)N3Cc5ccccc5C[C@H]3CN(C)C(C)C)CN(C(=O)Cc3ccc(OCCN(C)C5CC5)cc3)CC4)n(C)c2C)c2ccc(O)cc2)cc(C#N)n1C` [Example 138, N-(5-cyano-1,2-dimethyl-pyrrol-3-yl)-5-[2-[2-[4-[2-[cyclopropyl(methyl)amino]ethoxy]phenyl]acetyl]-7-[(3S)-3-[[isopropyl(methyl)amino]methyl]-3,4-dihydro-1H-isoquinoline-2-carbonyl]-3,4-dihydro-1H-isoquinolin-6-yl]-N-(4-hydroxyphenyl)-1,2-dimethyl-pyrrole-3-carboxamide], the pKi was 10.10 in assay [1], 9.30 in assay [2], 9.62 in assay [4] and 8.66 in assay [5]. The “TR_FRET EKI G101V/WT selectivty ratio” value in assay [3] was 6.2. In addition, the “TR_FRET EKI BCLxL/WT selectivty ratio” value in assay [5] was 27.2. Moreover, the values for the IC50 in assay [6] and in assay [7] were 0.036 µM and 0.195 µM, respectively. For the same compound, in assay [7], the “Ratio (G101V/WT)” value worked out at 5.4167.
In the case of `Cc1c(N(C(=O)c2cc(-c3cc4c(cc3C(=O)N3Cc5ccccc5C[C@H]3CN3CCC[C@H](C)C3)CN(C(=O)Cc3ccc(OCCN(C)C5CC5)cc3)CC4)n(C)c2C)c2ccc(O)cc2)cc(C#N)n1C` [Example 139, N-(5-cyano-1,2-dimethyl-pyrrol-3-yl)-5-[2-[2-[4-[2-[cyclopropyl(methyl)amino]ethoxy]phenyl]acetyl]-7-[(3S)-3-[[(3S)-3-methyl-1-piperidyl]methyl]-3,4-dihydro-1H-isoquinoline-2-carbonyl]-3,4-dihydro-1H-isoquinolin-6-yl]-N-(4-hydroxyphenyl)-1,2-dimethyl-pyrrole-3-carboxamide], the pKi was 9.92 in assay [1], 9.00 in assay [2], 9.29 in assay [4] and 8.24 in assay [5]. Moreover, the “TR_FRET EKI G101V/WT selectivty ratio” value in assay [3] is 8.3. Further, the “TR_FRET EKI BCLxL/WT selectivty ratio” value in assay [5] is recorded as 47.5. Further, the figures for the IC50 in assay [6] and in assay [7] were 0.021 µM and 0.115 µM, respectively. In addition, in assay [7], the “Ratio (G101V/WT)” value came out at 5.4762.
Consider `Cc1c(N(C(=O)c2cc(-c3cc4c(cc3C(=O)N3Cc5ccccc5C[C@H]3CN3CCC(C)CC3)CN(C(=O)Cc3ccc(OCCN5CCOCC5)cc3F)CC4)n(C)c2C)c2ccc(O)cc2)cc(C#N)n1C` [Example 140], for which the pKi was 10.10 in assay [1], 9.40 in assay [2], 9.77 in assay [4] and 8.55 in assay [5]. Also, the “TR_FRET EKI G101V/WT selectivty ratio” value in assay [3] came to 5.1. Moreover, the “TR_FRET EKI BCLxL/WT selectivty ratio” value in assay [5] was 35.9. The 50% inhibitory concentration (IC50) in assay [6] was 0.0055 µM; in assay [7], 0.034 µM. Also, the “Ratio (G101V/WT)” value in assay [7] was determined as 6.2044.
Consider `Cc1c(N(C(=O)c2cc(-c3cc4c(cc3C(=O)N3Cc5ccccc5C[C@H]3C)CN(C(=O)Cc3ccc(OCCN5CCOCC5)cc3)CC4)n(C)c2C)c2ccc(O)cc2)cnn1C1CCOCC1` [Example 142, N-(4-hydroxyphenyl)-1,2-dimethyl-N-[5-methyl-1-(oxan-4-yl)pyrazol-4-yl]-5-(7-{[(3R)-3-methyl-3,4-dihydro-1H-isoquinolin-2-yl]carbonyl}-2-(2-{4-[2-(morpholin-4-yl)ethoxy]phenyl}acetyl)-3,4-dihydro-1H-isoquinolin-6-yl)pyrrole-3-carboxamide], for which the pKi in assay [1] was 9.89; in assay [2] it was 8.89; in assay [4], 9.51; in assay [5], 8.09. In addition, the “TR_FRET EKI G101V/WT selectivty ratio” value in assay [3] is recorded as 10.0. Also, the “TR_FRET EKI BCLxL/WT selectivty ratio” value in assay [5] is listed as 62.3. The half-inhibitory concentration (IC50) was found to be 0.156 µM in assay [6] and 1.4 µM in assay [7]. For the same compound, in assay [7], the “Ratio (G101V/WT)” value is reported as 8.9744.
As to `COCCn1cc(N(C(=O)c2cc(-c3cc4c(cc3C(=O)N3Cc5ccccc5C[C@H]3C)CN(C(=O)Cc3ccc(OCCN5CCOCC5)cc3)CC4)n(C)c2C)c2ccc(O)cc2)cn1` [Example 143, N-(4-hydroxyphenyl)-N-[1-(2-methoxyethyl)pyrazol-4-yl]-1,2-dimethyl-5-(7-{[(3R)-3-methyl-3,4-dihydro-1H-isoquinolin-2-yl]carbonyl}-2-(2-{4-[2-(morpholin-4-yl)ethoxy]phenyl}acetyl)-3,4-dihydro-1H-isoquinolin-6-yl)pyrrole-3-carboxamide], the pKi in assay [1] was 10.40; in assay [2], 9.40; in assay [4] it was 10.00; in assay [5] it was 8.52. In assay [3], the “TR_FRET EKI G101V/WT selectivty ratio” value stood at 12.2. For the same compound, in assay [5], the “TR_FRET EKI BCLxL/WT selectivty ratio” value worked out at 83.3. Besides, the IC50 in assay [6] came to 0.048 µM; in assay [7] it was 0.605 µM. Also, the “Ratio (G101V/WT)” value in assay [7] was 12.604.
As to `Cc1c(C(=O)N(c2ccc(O)cc2)c2cnn(CC(C)C)c2)cc(-c2cc3c(cc2C(=O)N2Cc4ccccc4C[C@H]2C)CN(C(=O)Cc2ccc(OCCN4CCOCC4)cc2)CC3)n1C` [Example 144, N-(4-hydroxyphenyl)-1,2-dimethyl-5-(7-{[(3R)-3-methyl-3,4-dihydro-1H-isoquinolin-2-yl]carbonyl}-2-(2-{4-[2-(morpholin-4-yl)ethoxy]phenyl}acetyl)-3,4-dihydro-1H-isoquinolin-6-yl)-N-[1-(2-methylpropyl)pyrazol-4-yl]pyrrole-3-carboxamide], the pKi was 10.00 in assay [1], 8.96 in assay [2], 9.74 in assay [4] and 8.11 in assay [5]. For the same compound, in assay [3], the “TR_FRET EKI G101V/WT selectivty ratio” value was 11.0. Moreover, the “TR_FRET EKI BCLxL/WT selectivty ratio” value in assay [5] is given as 77.0. Besides, the IC50 is 0.0245 µM in assay [6] and 0.307 µM in assay [7]. Besides, the “Ratio (G101V/WT)” value in assay [7] came out at 12.531.
`Cc1c(C(=O)N(c2ccc(O)cc2)c2cnn3c2CCCC3)cc(-c2cc3c(cc2C(=O)N2Cc4ccccc4C[C@H]2C)CN(C(=O)Cc2ccc(OCCN4CCOCC4)cc2)CC3)n1C` [Example 147, N-(4-hydroxyphenyl)-1,2-dimethyl-5-(7-{[(3R)-3-methyl-3,4-dihydro-1H-isoquinolin-2-yl]carbonyl}-2-(2-{4-[2-(morpholin-4-yl)ethoxy]phenyl}acetyl)-3,4-dihydro-1H-isoquinolin-6-yl)-N-{4H,5H,6H,7H-pyrazolo[1,5-a]pyridin-3-yl}pyrrole-3-carboxamide]: the pKi in assay [1] is 10.22; in assay [2], 9.52; in assay [4], 9.85; in assay [5] it was 9.00. In addition, in assay [3], the “TR_FRET EKI G101V/WT selectivty ratio” value was 5.9. Further, the “TR_FRET EKI BCLxL/WT selectivty ratio” value in assay [5] is recorded as 17.2. Moreover, the IC50 in assay [6] worked out at 0.0304 µM; in assay [7] it was 0.211 µM. In assay [7], the “Ratio (G101V/WT)” value was determined as 6.9408.
Turning to `Cc1c(N(C(=O)c2cc(-c3cc4c(cc3C(=O)N3Cc5ccccc5C[C@H]3CN3CCCCC3)CN(C(=O)Cc3ccc(COCC5CCOCC5)cc3)CC4)n(C)c2C)c2ccc(O)cc2)cc(C#N)n1C` [Example 149, N-(5-cyano-1,2-dimethyl-1H-pyrrol-3-yl)-N-(4-hydroxyphenyl)-1,2-dimethyl-5-{2-[2-(4-{[(oxan-4-yl)methoxy]methyl}phenyl)acetyl]-7-[(3S)-3-[(piperidin-1-yl)methyl]-1,2,3,4-tetrahydroisoquinoline-2-carbonyl]-1,2,3,4-tetrahydroisoquinolin-6-yl}-1H-pyrrole-3-carboxamide], the pKi in assay [1] is 10.00; in assay [2], 8.96; in assay [4] it was 9.64; in assay [5], 8.72. The “TR_FRET EKI G101V/WT selectivty ratio” value in assay [3] is on record as 11.2. Besides, the “TR_FRET EKI BCLxL/WT selectivty ratio” value in assay [5] is given as 19.4. For the same compound, the IC50 in assay [6] came out at 0.0239 µM; in assay [7], 0.261 µM. Besides, the “Ratio (G101V/WT)” value in assay [7] is recorded as 10.921.
Regarding `Cc1c(N(C(=O)c2cc(-c3cc4c(cc3C(=O)N3Cc5ccccc5C[C@H]3CN3CCCCC3)CN(C(=O)Cc3ccc(OCCN5CCO[C@@H](C)C5)cc3)CC4)n(C)c2C)c2ccc(O)cc2)cc(C#N)n1C` [Example 150, N-(5-cyano-1,2-dimethyl-1H-pyrrol-3-yl)-N-(4-hydroxyphenyl)-1,2-dimethyl-5-[2-(2-{4-[2-((2S)-2-methylmorpholin-4-yl)ethoxy]phenyl}acetyl)-7-[(3S)-3-[(piperidin-1-yl)methyl]-1,2,3,4-tetrahydroisoquinoline-2-carbonyl]-1,2,3,4-tetrahydroisoquinolin-6-yl]-1H-pyrrole-3-carboxamide], the pKi is 10.40 in assay [1], 9.70 in assay [2], 10.10 in assay [4] and 8.59 in assay [5]. Besides, the “TR_FRET EKI G101V/WT selectivty ratio” value in assay [3] was 6.2. For the same compound, in assay [5], the “TR_FRET EKI BCLxL/WT selectivty ratio” value came to 70.3. Also, the half-inhibitory concentration (IC50) stood at 0.011 µM in assay [6] and 0.0579 µM in assay [7]. The “Ratio (G101V/WT)” value in assay [7] is 5.2636.
